Data from patent US11104648B2, “Pyrazole derivative” (Zhejiang Research Institute of Chemical Industry Co., Ltd., priority 2018, dated 2021).
Like-named read-outs stand apart in the source and are kept apart here.

Tests used:
Assay type in all cases: in vivo
[1] = tested on: adult Tetranychus cinnabarinus; assay: Activity assay of adult Tetranychus cinnabarinus (whole-plant spray on bean seedlings); conditions: 48 h; for pest or weed control at 2.5 µg/mL: concentration 2.5 mg/L; for pest or weed control at 1.25 µg/mL: concentration 1.25 mg/L
In short: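 Bean seedlings at two-true-leaf stage, infested with adult mites and base count taken, sprayed whole-plant with compound in DMF (≤10%) diluted in 1‰ Tween 80. Three replicates per treatment kept in standard observation room. Surviving mites counted at 48 h to give death rate.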

[2] = tested on: Eggs of Tetranychus Cinnabarinus; assay: Activity assay of eggs of Tetranychus cinnabarinus (spray method, ovicidal); conditions: Tetranychus cinnabarinus; for pest or weed control at 5 µg/mL: concentration 5 mg/L, non-incubated eggs counted as dead; for pest or weed control at 2 µg/mL: concentration 2 mg/L
In short: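 Female mites laid eggs on broad bean leaves for 24 h, adults removed, eggs sprayed with compound in DMF (≤10%)/1‰ Tween 80. Held at 26±2° C, 70–80% humidity, 16 h light; unhatched eggs counted dead once blank control hatched. Three replicates.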

[3] = tested on: Tetranychus cinnabarinus Nymphs; assay: Activity assay of Tetranychus cinnabarinus nymphs (spray on broad bean leaves); conditions: 48 h; for pest or weed control at 2.5 µg/mL: concentration 2.5 mg/L; for pest or weed control at 2.5 µg/mL / pest or weed control at 2 µg/mL: read-out: nymph-killing activity; for pest or weed control at 2 µg/mL: concentration 2 mg/L
In short: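 Compound in DMF (≤10%) diluted in 1‰ Tween 80 water was sprayed onto broad bean leaves carrying nymphs hatched from eggs laid by female adults over 24 h. Kept at 26±2° C., 70%–80% humidity, 16 h light; mortality (no response to touch) assessed after 48 h, three replicates with blank control.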

[4] = read-out: adult mite-killing activity
[5] = spray, read-out: ovicidal activity

Structure (SMILES)	pest or weed control at 2.5 µg/mL [1, 4]	pest or weed control at 5 µg/mL [2, 5]	pest or weed control at 2.5 µg/mL [3]	pest or weed control at 1.25 µg/mL ([1]; adult mites, parallel determination, read-out: Death rate (%))	pest or weed control at 1.25 µg/mL [1, 4]	pest or weed control at 2 µg/mL [2, 5]	pest or weed control at 2 µg/mL ([2]; eggs, parallel determination, read-out: Death rate (%))	pest or weed control at 2 µg/mL [3]	pest or weed control at 0.5 µg/mL ([3]; nymphs, concentration 0.5 mg/L, parallel determination, read-out: Death rate (%))
COC(=O)CSC(=O)OCO/C(=C(/C#N)c1ccc(C(C)(C)C)cc1)c1cc(C)nn1C [Compound 481]	≥ 90%	≥ 90%	≥ 95%						
COC(=O)OC(C)O/C(=C(/C#N)c1ccc(C(C)(C)C)cc1)c1cc(C)nn1C (stereo not drawn) [Compound 483]	≥ 90%	≥ 90%	≥ 95%						
Cc1cc(/C(OC(C)OC(=O)OC(C)C)=C(\C#N)c2ccc(C(C)(C)C)cc2)n(C)n1 (stereo not drawn) [Compound 486]	≥ 90%	≥ 90%	≥ 95%						
CCCCOC(=O)OC(C)O/C(=C(/C#N)c1ccc(C(C)(C)C)cc1)c1cc(C)nn1C (stereo not drawn) [Compound 488]	≥ 90%	≥ 90%	≥ 95%						
Cc1cc(/C(OC(C)OC(=O)OCC(C)C)=C(\C#N)c2ccc(C(C)(C)C)cc2)n(C)n1 (stereo not drawn) [Compound 489]	≥ 90%	≥ 90%	≥ 95%						
Cc1cc(/C(OC(C)OC(=O)OCCC(C)C)=C(\C#N)c2ccc(C(C)(C)C)cc2)n(C)n1 (stereo not drawn) [Compound 490]	≥ 90%	≥ 90%	≥ 95%						
CCCCCOC(=O)OC(C)O/C(=C(/C#N)c1ccc(C(C)(C)C)cc1)c1cc(C)nn1C (stereo not drawn) [Compound 492]	≥ 90%	≥ 90%	≥ 95%						
Cc1cc(/C(OC(C)OC(=O)OCCCl)=C(\C#N)c2ccc(C(C)(C)C)cc2)n(C)n1 (stereo not drawn) [Compound 494]	≥ 90%	≥ 90%	≥ 95%						
Cc1cc(/C(OC(C)OC(=O)OCC(F)(F)F)=C(\C#N)c2ccc(C(C)(C)C)cc2)n(C)n1 (stereo not drawn) [Compound 499]	≥ 90%	≥ 90%	≥ 95%						
COCCOC(=O)OC(C)O/C(=C(/C#N)c1ccc(C(C)(C)C)cc1)c1cc(C)nn1C (stereo not drawn) [Compound 500]	≥ 90%	≥ 90%	≥ 95%						
CSCCOC(=O)OC(C)O/C(=C(/C#N)c1ccc(C(C)(C)C)cc1)c1cc(C)nn1C (stereo not drawn) [Compound 503]	≥ 90%	≥ 90%	≥ 95%						
C=CCOC(=O)OC(C)O/C(=C(/C#N)c1ccc(C(C)(C)C)cc1)c1cc(C)nn1C (stereo not drawn) [Compound 506]	≥ 90%	≥ 90%	≥ 95%						
C#CCOC(=O)OC(C)O/C(=C(/C#N)c1ccc(C(C)(C)C)cc1)c1cc(C)nn1C (stereo not drawn) [Compound 508]	≥ 90%	≥ 90%	≥ 95%						
COC(=O)COC(=O)OC(C)O/C(=C(/C#N)c1ccc(C(C)(C)C)cc1)c1cc(C)nn1C (stereo not drawn) [Compound 509]	≥ 90%	≥ 90%	≥ 95%						
CCSC(=O)OC(C)O/C(=C(/C#N)c1ccc(C(C)(C)C)cc1)c1cc(C)nn1C (stereo not drawn) [Compound 512]	≥ 90%	≥ 90%	≥ 95%						
COC(=O)CSC(=O)OC(C)O/C(=C(/C#N)c1ccc(C(C)(C)C)cc1)c1cc(C)nn1C (stereo not drawn) [Compound 513]	≥ 90%	≥ 90%	≥ 95%						

Structure (SMILES)	pest or weed control at 2.5 µg/mL [1, 4]	pest or weed control at 5 µg/mL [2, 5]	pest or weed control at 2.5 µg/mL [3]	pest or weed control at 1.25 µg/mL ([1]; adult mites, parallel determination, read-out: Death rate (%))	pest or weed control at 1.25 µg/mL [1, 4]	pest or weed control at 2 µg/mL [2, 5]	pest or weed control at 2 µg/mL ([2]; eggs, parallel determination, read-out: Death rate (%))	pest or weed control at 2 µg/mL [3]	pest or weed control at 0.5 µg/mL ([3]; nymphs, concentration 0.5 mg/L, parallel determination, read-out: Death rate (%))
CCn1nc(C)cc1/C(OCOC(=O)OC)=C(\C#N)c1ccc(C(C)(C)C)cc1 [Compound 547]				100%	≥ 90%	≥ 90%	100%	≥ 90%	93%
CCn1nc(C)cc1/C(OCOC(=O)OC(C)C)=C(\C#N)c1ccc(C(C)(C)C)cc1 [Compound 550]	≥ 90%	≥ 90%	≥ 95%		≥ 90%	≥ 90%		≥ 90%	
CCCCOC(=O)OCO/C(=C(/C#N)c1ccc(C(C)(C)C)cc1)c1cc(C)nn1CC [Compound 552]	≥ 90%	≥ 90%	≥ 95%						
CCn1nc(C)cc1/C(OCOC(=O)OCC(C)C)=C(\C#N)c1ccc(C(C)(C)C)cc1 [Compound 553]	≥ 90%	≥ 90%	≥ 95%		≥ 90%	≥ 90%		≥ 90%	
CCn1nc(C)cc1/C(OCOC(=O)OCCC(C)C)=C(\C#N)c1ccc(C(C)(C)C)cc1 [Compound 554]	≥ 90%	≥ 90%	≥ 95%						
CCCCCOC(=O)OCO/C(=C(/C#N)c1ccc(C(C)(C)C)cc1)c1cc(C)nn1CC [Compound 556]	≥ 90%	≥ 90%	≥ 95%						
CCn1nc(C)cc1/C(OCOC(=O)OCCCl)=C(\C#N)c1ccc(C(C)(C)C)cc1 [Compound 558]	≥ 90%	≥ 90%	≥ 95%						
CCn1nc(C)cc1/C(OCOC(=O)OCC(F)(F)F)=C(\C#N)c1ccc(C(C)(C)C)cc1 [Compound 563]	≥ 90%	≥ 90%	≥ 95%						
CCn1nc(C)cc1/C(OCOC(=O)OCCOC)=C(\C#N)c1ccc(C(C)(C)C)cc1 [Compound 564]	≥ 90%	≥ 90%	≥ 95%						
CCn1nc(C)cc1/C(OCOC(=O)OCCSC)=C(\C#N)c1ccc(C(C)(C)C)cc1 [Compound 567]	≥ 90%	≥ 90%	≥ 95%						
C=CCOC(=O)OCO/C(=C(/C#N)c1ccc(C(C)(C)C)cc1)c1cc(C)nn1CC [Compound 570]	≥ 90%	≥ 90%	≥ 95%		≥ 90%	≥ 90%		≥ 90%	
C#CCOC(=O)OCO/C(=C(/C#N)c1ccc(C(C)(C)C)cc1)c1cc(C)nn1CC [Compound 572]	≥ 90%	≥ 90%	≥ 95%						
CCn1nc(C)cc1/C(OCOC(=O)OCC(=O)OC)=C(\C#N)c1ccc(C(C)(C)C)cc1 [Compound 573]	≥ 90%	≥ 90%	≥ 95%						
CCSC(=O)OCO/C(=C(/C#N)c1ccc(C(C)(C)C)cc1)c1cc(C)nn1CC [Compound 576]	≥ 90%	≥ 90%	≥ 95%						
CCn1nc(C)cc1/C(OCOC(=O)SCC(=O)OC)=C(\C#N)c1ccc(C(C)(C)C)cc1 [Compound 577]	≥ 90%	≥ 90%	≥ 95%						
